Like-named read-outs stand apart in the source and are kept apart here.
What was measured:
PDE4D2 = PDE4D2 (Homo sapiens (Human), UniProt Q08499); test: Effect of compounds on PDE4D2 activity (fluorescence polarization kit); assay type: biochemical
Method: FP was usually represented by mP value.
[formula] • I∥ (S520): fluorescence intensity in parallel direction • I⊥ (P520): fluorescence intensity in perpendicular direction • G: G factor=1
[formula] • mP(sample): mP of the test compound in a reaction well • mP(negative control): mP in the negative control well • mP(positive control): mP in the positive control well
According to the calculated inhibition rate at each concentration, the IC50 value of each compound was calculated by GraphPad Prism 8 software.

PDE4B2 = PDE4B2 (Homo sapiens (Human), UniProt Q07343); test: Effect of compounds on PDE4B2 activity (fluorescence polarization kit)
Excerpt: [formula] • I∥ (S535): fluorescence intensity in parallel direction • I⊥ (P535): fluorescence intensity in perpendicular direction • G: G factor=1

[1] = tested on: human peripheral blood mononuclear cells (TNF-α release); test: Inhibition of LPS-induced TNF-α release from human peripheral blood mononuclear cells in vitro; assay type: cell-based; conditions: 4 h; for Emax: read-out: Max inhibition (%)
Method: 5. Detection of Inhibitory Activity of Compounds on the Release of Tumor Necrosis Factor-α (TNF-α) from Human Peripheral Blood Mononuclear Cells Induced by Lipopolysaccharide (LPS) In Vitro
The concentration of hPBMC cells was adjusted to 0.25×10^6 cells/mL with RPMI1640 medium and inoculated into a 96-well plate in an amount of 50000 cells per well. […] Incubation was carried out for 4 h in an incubator at 37° C. and 5% CO2. The cell supernatant was collected, and the content of TNF-α in the supernatant sample was detected by human TNF-α Elisa quantitative test kit (Sino Biological, Cat #KIT10602). The IC50 value was calculated using GraphPad Prism software.

[2] = Homo sapiens, PBMC, read-out: Re IC50
[3] = Homo sapiens, PBMC, hPBMC, 100 ng/mL LPS
[4] = relative IC50, hPBMC, 100 ng/mL LPS, read-out: Re IC50
[5] = Homo sapiens, PBMC, read-out: Re IC50 (nM)

Chain of PDE4B2 (Q07343 other isoform, or with tags, fused parts or gaps): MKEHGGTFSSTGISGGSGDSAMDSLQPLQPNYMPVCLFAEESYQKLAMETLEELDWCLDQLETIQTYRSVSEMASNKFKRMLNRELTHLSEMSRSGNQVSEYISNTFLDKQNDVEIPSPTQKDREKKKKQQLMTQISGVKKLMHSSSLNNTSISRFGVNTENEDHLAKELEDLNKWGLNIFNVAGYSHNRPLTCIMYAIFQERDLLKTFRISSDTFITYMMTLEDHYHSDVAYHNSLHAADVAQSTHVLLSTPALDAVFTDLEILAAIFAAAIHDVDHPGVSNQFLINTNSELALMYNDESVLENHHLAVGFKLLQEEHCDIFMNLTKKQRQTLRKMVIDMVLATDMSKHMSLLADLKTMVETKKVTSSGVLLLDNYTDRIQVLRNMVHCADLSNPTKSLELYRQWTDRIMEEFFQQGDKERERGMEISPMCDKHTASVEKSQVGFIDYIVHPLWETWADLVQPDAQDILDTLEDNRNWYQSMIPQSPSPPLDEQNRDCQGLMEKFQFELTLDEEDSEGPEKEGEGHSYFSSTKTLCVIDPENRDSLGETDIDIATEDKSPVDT
Chain of PDE4D2 (Q08499 303-809, change not shown): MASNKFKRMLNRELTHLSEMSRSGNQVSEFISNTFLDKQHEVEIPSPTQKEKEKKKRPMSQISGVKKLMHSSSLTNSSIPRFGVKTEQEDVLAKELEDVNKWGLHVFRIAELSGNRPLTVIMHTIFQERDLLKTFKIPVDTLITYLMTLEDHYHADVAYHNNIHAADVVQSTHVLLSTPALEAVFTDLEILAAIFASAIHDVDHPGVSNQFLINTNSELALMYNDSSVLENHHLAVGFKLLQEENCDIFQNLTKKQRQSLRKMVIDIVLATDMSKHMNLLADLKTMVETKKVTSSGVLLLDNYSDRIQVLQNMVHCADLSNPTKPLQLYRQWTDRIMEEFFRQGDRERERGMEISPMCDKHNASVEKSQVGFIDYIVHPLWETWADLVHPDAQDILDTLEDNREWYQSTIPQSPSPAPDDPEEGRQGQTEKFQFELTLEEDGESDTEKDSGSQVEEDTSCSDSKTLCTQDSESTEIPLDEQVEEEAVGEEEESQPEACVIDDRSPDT

| IC50 (PDE4D2) [nM] | IC50 (PDE4B2) [nM] | IC50 [1, 2] [nM] | SMILES | Emax [1, 3] [%] | IC50 (PDE4B2; read-out: PDE4B2 IC50) [nM] | Max inhibition (%) ([1]; hPBMC, 100 ng/mL LPS) | IC50 [1, 4] [nM] | Emax ([1]; Homo sapiens, PBMC) [%] | IC50 [1, 5] [nM] |
| --- | --- | --- | --- | --- | --- | --- | --- | --- | --- |
| < 10 | < 10 | < 10 | C#Cc1cnc(C2=CCN(c3nc4c(c(NC5(COC(N)=O)CCC5)n3)[S@+]([O-])CC4)CC2)nc1 [Compound 35] | 85.1 | – | – | – | – | – |
| < 10 | < 10 | < 10 | C#Cc1cnc(C2=CCN(c3nc4c(c(NC5(CN/C(C)=N/C#N)CCC5)n3)[S@+]([O-])CC4)CC2)nc1 [Compound 39] | 71.1 | – | – | – | – | – |
| < 10 | < 10 | 10 to 50 | NC(=O)OCC1(Nc2nc(N3CC=C(c4ncc(Cl)cn4)CC3)nc3c2[S@+]([O-])CC3)CCC1 [Compound 48] | 73.9 | – | – | – | – | – |
| < 10 | < 10 | < 10 | Cc1coc(C2=CCN(c3nc4c(c(NC5(COC(N)=O)CCC5)n3)[S@+]([O-])CC4)CC2)n1 [Compound 50] | 72.1 | – | – | – | – | – |
| < 10 | < 10 | 10 to 50 | NC(=O)OCC1(Nc2nc(N3CC=C(c4ncc(Cl)cn4)CC3)nc3c2[S@+]([O-])CC3)CCCC1 [Compound 52] | – | – | – | – | – | – |
| < 10 | < 10 | < 10 | NC(=O)OCC1(Nc2nc(N3CC=C(c4nc5ccccc5s4)CC3)nc3c2[S@+]([O-])CC3)CCC1 [Compound 56] | – | – | – | – | – | – |
| < 10 | < 10 | 10 to 50 | C#Cc1cnc(C2=CCN(c3nc4c(c(NC5(COC(F)F)CCC5)n3)[S+]([O-])CC4)CC2)nc1 (centres unmarked) [Compound 63] | 72.7 | – | – | – | – | – |
| < 10 | < 10 | 10 to 50 | C#Cc1cnc(C2=CCN(c3nc4c(c(NC5(COC)CCC5)n3)[S@+]([O-])CC4)CC2)nc1 [Compound 64] | 79.9 | – | – | – | – | – |
| < 10 | < 10 | < 10 | C#Cc1ccc(C2=CCN(c3nc4c(c(NC5(CNC(=O)OC)CCC5)n3)[S@+]([O-])CC4)CC2)nc1 [Compound 69] | 70.9 | – | – | – | – | – |
| < 10 | < 10 | < 10 | COC(=O)NCC1(Nc2nc(N3CC=C(c4ncc(Cl)cn4)CC3)nc3c2[S@+]([O-])CC3)CCC1 [Compound 70] | 55.4 | – | – | – | – | – |
| < 10 | < 10 | < 10 | COC(=O)NCC1(Nc2nc(N3C[C@@H]4CC(c5ncc(Cl)cn5)=C[C@@H]4C3)nc3c2[S@+]([O-])CC3)CCC1 [Compound 73-1] | 67.5 | – | – | – | – | – |
| 10 to 50 | < 10 | < 10 | COC(=O)NCC1(Nc2nc(N3C[C@H]4CC(c5ncc(Cl)cn5)=C[C@H]4C3)nc3c2[S@+]([O-])CC3)CCC1 [Compound 73-2] | 67.9 | – | – | – | – | – |
| 10 to 50 | 10 to 50 | 10 to 50 | NCC1(Nc2nc(N3CC=C(c4nc5ccccc5s4)CC3)nc3c2[S@+]([O-])CC3)CCC1 [Compound 78] | 77.4 | – | – | – | – | – |
| < 10 | < 10 | 10 to 50 | COC(=O)NCC1(Nc2nc(N3CC=C(c4nc5ccccc5s4)CC3)nc3c2[S@+]([O-])CC3)CCC1 [Compound 79] | 65.5 | – | – | – | – | – |
| < 10 | – | – | COC(=O)NCC(C)(C)Nc1nc(N2CC=C(c3ncc(Cl)cn3)CC2)nc2c1[S@+]([O-])CC2 [Compound 88] | – | < 10 | 74.9 | < 10 | – | – |
| 10 to 50 | 10 to 50 | 10 to 50 | CNC(=O)OCC1(Nc2nc(N3CC=C(c4ncc(C5CC5)cn4)CC3)nc3c2[S@+]([O-])CC3)CCC1 [Compound 90] | 69.5 | – | – | – | – | – |
| 50 to 100 | – | – | CCOc1cnc2c(c1)OC[C@@H]1CN(c3nc4c(c(NC(C)(C)CNC(=O)OC)n3)[S@+]([O-])CC4)CCN21 [Compound 147-1] | – | 10 to 50 | – | – | – | – |
| 50 to 100 | – | – | CCOc1cnc2c(c1)OC[C@H]1CN(c3nc4c(c(NC(C)(C)CNC(=O)OC)n3)[S@+]([O-])CC4)CCN21 [Compound 147-2] | – | 10 to 50 | – | – | – | – |

Second part, the compound before the results:

| SMILES | IC50 (PDE4D2) [nM] | IC50 (PDE4B2) [nM] | IC50 [1, 2] [nM] | Emax [1, 3] [%] | IC50 (PDE4B2; read-out: PDE4B2 IC50) [nM] | Max inhibition (%) ([1]; hPBMC, 100 ng/mL LPS) | IC50 [1, 4] [nM] | Emax ([1]; Homo sapiens, PBMC) [%] | IC50 [1, 5] [nM] |
| --- | --- | --- | --- | --- | --- | --- | --- | --- | --- |
| C#Cc1cnc(C2=CCN(c3nc4c(c(Nc5cccc(F)c5)n3)[S@+]([O-])CC4)CC2)nc1 [Compound 36-1] | < 10 | – | – | – | < 10 | 73.52 | < 10 | – | – |
| C#Cc1ccc(N2CCN(c3nc4c(c(NC5(CO)CCC5)n3)[S+]([O-])CCC4)CC2)cc1 (centres unmarked) [Compound 41] | 10 to 50 | < 10 | – | – | – | – | – | 69.8 | 10 to 50 |
| NC(=O)OCC1(Nc2nc(N3C[C@H]4CC(c5ccc(Cl)cc5)=C[C@H]4C3)nc3c2[S@+]([O-])CC3)CCC1 [Compound 44] | 10 to 50 | – | – | – | < 10 | 77.27 | 10 to 50 | – | – |
| NC(=O)OCC1(Nc2nc(N3CC=C(c4nc5ccccc5o4)CC3)nc3c2[S@+]([O-])CC3)CCC1 [Compound 49] | < 10 | – | – | – | < 10 | 73.46 | < 10 | – | – |
| C#Cc1cnc(C2=CCN(c3nc4c(c(NC5(C(C)O)CCC5)n3)[S@+]([O-])CC4)CC2)nc1 (some centres unmarked) [Compound 66] | < 10 | < 10 | – | – | – | – | – | 67.1 | 10 to 50 |
| [O-][S+]1CCc2nc(N3CCN4c5ccccc5OC[C@H]4C3)nc(NC3(CO)COC3)c21 (some centres unmarked) [Compound 72-3] | 10 to 50 | – | – | – | < 10 | 65.66 | < 10 | – | – |
| [O-][S+]1CCc2nc(N3CCN4c5ccccc5OC[C@@H]4C3)nc(NC3(CO)COC3)c21 (some centres unmarked) [Compound 72-4] | < 10 | – | – | – | < 10 | 62.45 | < 10 | – | – |
| [O-][S@+]1CCc2nc(N3CC4CN(c5ccc6c(c5)CC6)CC4C3)nc(Nc3cccc(F)c3)c21 (some centres unmarked) [Compound 76-1] | 10 to 50 | – | – | – | < 10 | 74.65 | 10 to 50 | – | – |
| [O-][S@+]1CCc2nc(N3CC=C(c4ncc(Cl)cn4)CC3)nc(Nc3ccnc(F)c3)c21 [Compound 85-1] | < 10 | – | – | – | < 10 | 71.38 | < 10 | – | – |
| C#Cc1ccc(C2=CCN(c3nc4c(c(NC5([C@H](C)O)CCC5)n3)[S@+]([O-])CC4)CC2)nc1 [Compound 95-2] | < 10 | – | – | – | < 10 | 70.67 | < 10 | – | – |
| C#Cc1ccc(C2=CCN(c3nc4c(c(NC5([C@@H](C)O)CCC5)n3)[S@@+]([O-])CC4)CC2)nc1 [Compound 95-3] | < 10 | – | – | – | < 10 | 81.97 | < 10 | – | – |
| C#Cc1cnc(C2=CCN(c3nc4c(c(NC5([C@@H](C)O)CCC5)n3)[S@+]([O-])CC4)CC2)nc1 [Compound 96-1] | 10 to 50 | – | – | – | < 10 | 72.83 | < 10 | – | – |
| Cc1cnc2c(c1)OC[C@@H]1CN(c3nc4c(c(NC(C)(C)COC(N)=O)n3)[S@+]([O-])CC4)CCN21 [Compound 142-1] | 10 to 50 | – | – | – | < 10 | – | – | – | – |
| Cc1cnc2c(c1)OC[C@H]1CN(c3nc4c(c(NC(C)(C)COC(N)=O)n3)[S@+]([O-])CC4)CCN21 [Compound 142-2] | 10 to 50 | – | – | – | 10 to 50 | – | – | – | – |
| CCOc1cnc2c(c1)OC[C@@H]1CN(c3nc4c(c(NC(C)(C)COC(N)=O)n3)[S+]([O-])CC4)CCN21 (some centres unmarked) [Compound 146-1] | < 10 | – | – | – | 10 to 50 | – | – | – | – |
| CCOc1cnc2c(c1)OC[C@H]1CN(c3nc4c(c(NC(C)(C)COC(N)=O)n3)[S+]([O-])CC4)CCN21 (some centres unmarked) [Compound 146-2] | 10 to 50 | – | – | – | 10 to 50 | – | – | – | – |

— patent US20250263426A1, “PDE4B INHIBITOR AND USE THEREOF” (Xizang Haisco Pharmaceutical Co., Ltd., priority 2022, published 2025)
